In patent publication US6162810A, “Inadone and tetralone compounds for inhibiting cell proliferation” (The Regents of the University of California, priority 1998, dated 2000) one finds CC50 data, which are given here for 47 compounds.

Series [1] has as its system CEM WT, CEM AB9228, MOLT-4, Jurkat, NALL-1, WI-L2, K562, and HL-60 cells. Briefly: Cytotoxicity to various proliferating cell lines (average). Type of series: cell-based, human. On the procedure: (§1) (B) Similarly, compounds of the invention were tested for their ability to kill CEM WT, CEM AB9228, MOLT-4, Jurkat, NALL-1, WI-L2, K562, and HL-60 cells.
For another series, the system named is proliferating cells. Briefly: Ability of further compounds to kill proliferating cells (average). Type of series: cell-based. Here is the method: as §1
(C) Proceeding as described above, further compounds were tested for their ability to kill proliferating cells.

Setting [2] is: average TC50 over various proliferating cell lines, read-out: TC50 (the source's name).
The mark [3] stands for this setting: average TC50, proliferating cells, read-out: TC50 (the source's name).
Where [4] appears, read: Homo sapiens, average TC50 over various proliferating cell lines, read-out: TC50 (the source's name).

Read-outs that look alike come from different tables or passages of the source.

As to “5,6-dimethoxy-2-(3',5'-dimethyl-4'-phosphonoacetylphenylmethylene)-1-indanone”, the CC50 in series [1] (setting [2]) was determined as 0.007 µM.

“6,7-dimethoxy-2-(4'-(pyridine-N-oxide)phenylmethylene)-1-tetralone”: the CC50 in series [1] (setting [2]) was more than 50 µM.

In the case of `O=C1C(=Cc2cc(Cl)cc(Cl)c2)Cc2ccccc21` [2-(3',5'-dichlorophenylmethylene)-1-indanone], the CC50 in the series on proliferating cells (setting [3]) was found to be 30 µM.

With `O=C1C(=Cc2cc(Cl)cc(Cl)c2)Cc2cc(O)c(O)cc21` [5,6-dihydroxy-2-(3',5'-dichlorophenylmethylene)-1-indanone], the CC50 in series [1] (setting [4]) was found to be 30 µM.

Take `COc1cc2c(cc1OC)C(=O)C(=Cc1cc(C)ccc1C)C2` [5,6-dimethoxy-2-(2',5'-dimethylphenylmethylene)-1-indanone]: the CC50 in series [1] (setting [4]) worked out at 162 µM; in the series on proliferating cells (setting [3]) it was 30.5 µM.

In the case of `COc1cc2c(cc1OC)C(=O)C(=Cc1c(Cl)cc(-c3ccncc3)cc1Cl)C2` [5,6-dimethoxy-2-(2',6'-dichloro-4'-(pyridin-4-yl)phenylmethylene)-1-indanone], the CC50 in series [1] (setting [4]) stood at 40 µM.

As for `COc1cc2c(cc1OC)C(=O)C(=Cc1cc(I)cc(I)c1O)C2` [5,6-dimethoxy-2-(2'-hydroxy-3',5'-diiodophenylmethylene)-1-indanone], the CC50 in the series on proliferating cells (setting [3]) was 12.5 µM.

With `COc1cc2c(cc1OC)C(=O)C(=Cc1c(O)cc(I)cc1I)C2` [5,6-dimethoxy-2-(2'-hydroxy-4',6'-diiodophenylmethylene)-1-indanone], the CC50 in series [1] (setting [4]) worked out at 18 µM.

Consider `COc1cc2c(cc1OC)C(=O)C(=Cc1cc([N+](=O)[O-])ccc1O)C2` [5,6-dimethoxy-2-(2'-hydroxy-5'-nitrophenylmethylene)-1-indanone], for which the CC50 in series [1] (setting [4]) turned out to be 15 µM; in the series with proliferating cells (setting [3]), 14.5 µM.

For `COc1cc2c(cc1OC)C(=O)C(=Cc1cc(F)cc(F)c1)C2` [5,6-dimethoxy-2-(3',5'-difluorophenylmethylene)-1-indanone (], the CC50 in series [1] (setting [2]) came out at 26 µM.

`COc1cc2c(cc1OC)C(=O)C(=Cc1cc(F)cc(F)c1)C2` [5,6-dimethoxy-2-(3',5'-difluorophenylmethylene)-1-indanone]: the CC50 (in series [1] (setting [4]); with proliferating cells (setting [3])) was 19 µM each time.

In the case of `COc1cc2c(cc1OC)C(=O)C(=CC1(O)CC(OC)CC(OC)C1)C2` (centres unmarked) [5,6-dimethoxy-2-(3',5'-dimethoxy-1'-hydroxycyclohexylmethylene)-1-indanone], in series [1] (setting [4]), the CC50 was 2 µM.

As to `COc1cc2c(cc1OC)C(=O)C(=Cc1cc(OC)c(O)c(OC)c1)C2` [5,6-dimethoxy-2-(3',5'-dimethoxy-4'-hydroxyphenylmethylene)-1-indanone], the CC50 (in series [1] (setting [4]); in the series on proliferating cells (setting [3])) was more than 50 µM in each case.

On to `COc1cc2c(cc1OC)C(=O)C(=Cc1cc(C)c(OC(=O)CCC(=O)O)c(C)c1)C2` [5,6-dimethoxy-2-(3',5'-dimethyl-4'-O-succinylphenylmethylene)-1-indanone], for which the CC50 in series [1] (setting [4]) is 1 µM.

`COc1cc2c(cc1OC)C(=O)C(=Cc1cc(C)c(OC(C)=O)c(C)c1)C2` [5,6-dimethoxy-2-(3',5'-dimethyl-4'-acetoxyphenylmethylene)-1-indanone]: the CC50 in the series with proliferating cells (setting [3]) was 0.4 µM.

As for `COc1cc2c(cc1OC)C(=O)/C(=C/c1cc(C)c(O)c(C)c1)C2` [5,6-dimethoxy-2-(3',5'-dimethyl-4'-hydroxyphenylmethylene)-1-indanone], the CC50 in series [1] (Homo sapiens, read-out: TC50) is 0.017 µM; with proliferating cells (read-out: TC50) it was 0.0065 µM.

In the case of `COc1cc2c(cc1OC)C(=O)C(=Cc1cc(C)c([N+](=O)[O-])c(C)c1)C2` [5,6-dimethoxy-2-(3',5'-dimethyl-4'-nitrophenylmethylene)-1-indanone], the CC50 in the series with proliferating cells (setting [3]) was more than 50 µM.

Take `COc1cc2c(cc1OC)C(=O)C(=Cc1cc(C)c(OC(=O)CP(=O)(O)O)c(C)c1)C2` [5,6-dimethoxy-2-(3',5'-dimethyl-4'-phosphonoacetoxyphenylmethylene)-1-indanone]: the CC50 in the series on proliferating cells (setting [3]) was 11.5 µM.

Turning to `COc1cc2c(cc1OC)C(=O)C(=Cc1cc(C)c(OC(=O)CCC(=O)O)c(C)c1)C2` [5,6-dimethoxy-2-(3',5'-dimethyl-4'-succinophenylmethylene)-1-indanone], in the series on proliferating cells (setting [3]), the CC50 came to 0.07 µM.

`COc1cc2c(cc1OC)C(=O)C(=Cc1cc(OC(F)(F)F)cc(OC(F)(F)F)c1)C2` [5,6-dimethoxy-2-(3',5'-ditrifluoromethoxyphenylmethylene)-1-indanone]: the CC50 in series [1] (setting [4]) is more than 100 µM.

For `COc1cc2c(cc1OC)C(=O)C(=Cc1cc(C(F)(F)F)cc(C(F)(F)F)c1)C2` [5,6-dimethoxy-2-(3',5'-ditrifluoromethylphenylmethylene)-1-indanone], in the series on proliferating cells (setting [3]), the CC50 is more than 50 µM.

In the case of `COc1cc2c(cc1OC)C(=O)C(=Cc1cccc(Cl)c1)C2` [5,6-dimethoxy-2-(3'-chlorophenylmethylene)-1-indanone], the CC50 in series [1] (setting [4]) is more than 50 µM; in the series with proliferating cells (setting [3]), 2.5 µM.

Consider `COc1cc2c(c(NC(=O)C=O)c1OC)C(=O)C(=Cc1cc(C)c(O)c(C)c1)C2` [5,6-dimethoxy-7-(NHCOCOH)-2-(3',5'-dimethyl-4'-hydroxyphenylmethylene)-1-indanone], for which, in the series on proliferating cells (setting [3]), the CC50 is 0.0015 µM.

For `COC(=O)C(=O)Nc1c(OC)c(OC)cc2c1C(=O)C(=Cc1cc(C)c(O)c(C)c1)C2` [5,6-dimethoxy-7-methoxalylamino-2-(3',5'-dimethyl-4'-hydroxyphenylmethylene)-1-indanone], the CC50 in the series with proliferating cells (setting [3]) stood at 0.2 µM.

`COc1cc(C=C2Cc3cc(C)c(C)cc3C2=O)cc(OC)c1` [5,6-dimethyl-2-(3',5'-dimethoxyphenylmethylene)-1-indanone]: the CC50 with proliferating cells (setting [3]) was more than 50 µM.

For `COc1cc(C=C2Cc3cc4c(cc3C2=O)OCO4)cc(OC)c1` [5,6-methylenedioxy-2-(3',5'-dimethoxyphenylmethylene)-1-indanone], the CC50 in series [1] (setting [4]) is more than 50 µM.

On to `COc1cc(C=C2Cc3cc(OC)ccc3C2=O)cc(OC)c1` [5-methoxy-2-(3',5'-dimethoxyphenylmethylene)-1-indanone], for which the CC50 in the series on proliferating cells (setting [3]) was more than 50 µM.

`O=C1C(=Cc2cccc(O)c2O)CCc2cc(O)c(O)cc21` [6,7-dihydroxy-2-(2',3'-dihydroxyphenylmethylene)-1-tetralone]: the CC50 in series [1] (setting [4]) was more than 50 µM.

For `O=C1C(=Cc2cc(O)c(O)c(O)c2)CCc2cc(O)c(O)cc21` [6,7-dihydroxy-2-(3',4',5'-trihydroxyphenylmethylene)-1-tetralone], the CC50 in series [1] (setting [4]) is 43 µM.

Regarding `COc1cc(O)c(C=C2CCc3cc(OC)c(OC)cc3C2=O)c(OC)c1` [6,7-dimethoxy-2-(2',4'-dimethoxy-6'-hydroxyphenylmethylene)-1-tetralone], the CC50 in series [1] (setting [4]) was found to be 10 µM.

In the case of `COc1ccc(C=C2CCc3cc(OC)c(OC)cc3C2=O)c(OC)c1` [6,7-dimethoxy-2-(2',4'-dimethoxyphenylmethylene)-1-tetralone], the CC50 in the series with proliferating cells (setting [3]) was more than 50 µM.

For the compound `COc1ccc(OC)c(C=C2CCc3cc(OC)c(OC)cc3C2=O)c1` [6,7-dimethoxy-2-(2',5'-dimethoxyphenylmethylene)-1-tetralone], the CC50 in series [1] (setting [4]) stood at 11 µM.

Regarding `COc1cc2c(cc1OC)C(=O)C(=Cc1cc(C)ccc1C)CC2` [6,7-dimethoxy-2-(2',5'-dimethylphenylmethylene)-1-tetralone], the CC50 in series [1] (setting [4]) turned out to be 5 µM.

Take `COc1cc2c(cc1OC)C(=O)C(=Cc1c(OC)cccc1OC)CC2` [6,7-dimethoxy-2-(2',6'-dimethoxyphenylmethylene)-1-tetralone]: the CC50 in the series on proliferating cells (setting [3]) was more than 50 µM.

Consider `COc1cc2c(cc1OC)C(=O)C(=Cc1c(C)cccc1C)CC2` [6,7-dimethoxy-2-(2',6'-dimethylphenylmethylene)-1-tetralone], for which, in series [1] (setting [4]), the CC50 was more than 50 µM.

For the compound `COc1ccccc1C=C1CCc2cc(OC)c(OC)cc2C1=O` [6,7-dimethoxy-2-(2'-methoxyphenylmethylene)-1-tetralone], the CC50 in the series with proliferating cells (setting [3]) is more than 50 µM.

On to `COc1cc2c(cc1OC)C(=O)C(=Cc1cc(OC)c(OC)c(OC)c1)CC2` [6,7-dimethoxy-2-(3',4',5'-trimethoxyphenylmethylene)-1-tetralone], for which the CC50 in series [1] (setting [4]) is more than 50 µM.

On to `COc1cc2c(cc1OC)C(=O)C(=Cc1cc(Cl)cc(Cl)c1)CC2` [6,7-dimethoxy-2-(3',5'-dichlorophenylmethylene)-1-tetralone], for which, in the series with proliferating cells (setting [3]), the CC50 was determined as 7 µM.

In the case of `COc1cc2c(cc1OC)C(=O)C(=Cc1cc(OC)c(O)c(OC)c1)CC2` [6,7-dimethoxy-2-(3',5'-dimethoxy-4'-hydroxyphenylmethylene)-1-tetralone], in the series on proliferating cells (setting [3]), the CC50 turned out to be 6 µM.

For `COc1cc2c(cc1OC)C(=O)C(=Cc1cc(C)cc(C)c1)CC2` [6,7-dimethoxy-2-(3',5'-dimethylphenylmethylene)-1-tetralone], the CC50 in series [1] (setting [4]) worked out at 4 µM.

As for `COc1cc2c(cc1OC)C(=O)C(=Cc1cccc(Cl)c1)CC2` [6,7-dimethoxy-2-(3'-chlorophenylmethylene)-1-tetralone], in the series with proliferating cells (setting [3]), the CC50 amounted to 9 µM.

With `COc1cc2c(cc1OC)C(=O)C(=Cc1ccc(O)c(C(=O)O)c1)CC2` [6,7-dimethoxy-2-(3'-hydrocarboxy-4'-hydroxyphenylmethylene)-1-tetralone], in series [1] (setting [4]), the CC50 is more than 50 µM.

For `COc1cccc(C=C2CCc3cc(OC)c(OC)cc3C2=O)c1` [6,7-dimethoxy-2-(3'-methoxyphenylmethylene)-1-tetralone], the CC50 in the series with proliferating cells (setting [3]) was 5 µM.

For `COc1cc2c(cc1OC)C(=O)C(=Cc1cccc([N+](=O)[O-])c1)CC2` [6,7-dimethoxy-2-(3'-nitrophenylmethylene)-1-tetralone], the CC50 in the series with proliferating cells (setting [3]) stood at 9 µM.

With `COc1cc2c(cc1OC)C(=O)C(=Cc1ccc(N)cc1)CC2` [6,7-dimethoxy-2-(4'-aminophenylmethylene)-1-tetralone], the CC50 in series [1] (setting [4]) is more than 50 µM.

Take `COc1ccc2c(c1)C(=O)C(=Cc1cc(C)c(O)c(C)c1)C2` [6-methoxy-2-(3',5'-dimethyl-4'-hydroxyphenylmethylene)-1-indanone]: the CC50 in series [1] (setting [4]) is more than 50 µM.

As to `COc1cccc2c1C(=O)C(=Cc1cc(C)c(O)c(C)c1)C2` [7-methoxy-2-(3',5'-dimethyl-4'-hydroxyphenylmethylene)-1-indanone], in series [1] (setting [4]), the CC50 came to 51 µM.
